In PubChem BioAssay (NCI):
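Interpolation was linear, between the two tested concentrations surrounding the appropriate level; five concentrations were tested over 48 hours in 96-well plates. The concentration for 50% growth inhibition is given as GI50. Definition used: TGI = concentration required for complete inhibition of growth.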

Legend:
Experiment in all cases: growth of human tumour cells (NCI), 48 h
[1] = test system: DU-145 prostate
[2] = test system: OVCAR-8 ovarian
[3] = test system: OVCAR-5 ovarian
[4] = test system: TK-10 renal
[5] = test system: SK-MEL-2 melanoma
[6] = test system: UACC-257 melanoma
[7] = test system: RXF 393 renal
[8] = test system: HCT-15 colon
[9] = test system: SN12C renal
[10] = test system: SK-OV-3 ovarian

For `O=C1c2c(Cl)c(Cl)c(Cl)c(Cl)c2C(=O)C2(Cl)CC=CCC12Cl` (configuration not stated), the GI50 [1] was 1.93 µM, the TGI [1] was 3.36 µM and the GI50 [2] was 1640 nM. The TGI [2] was 3.12 µM, the GI50 [3] was 2.51 µM and the TGI [3] was 5.74 µM. It also gave a GI50 [4] of 2.06 µM, a TGI [4] of 3.57 µM and a GI50 [5] of 2.48 µM. For the same compound, the TGI [5] was 4.89 µM, the GI50 [6] was 1530 nM and the TGI [6] was 2.95 µM. The GI50 [7] was 1630 nM, the TGI [7] was 3.01 µM and the GI50 [8] was 1.19 µM. It also gave a TGI [8] of 2.83 µM, a GI50 [9] of 1.78 µM and a TGI [9] of 3.22 µM. It also gave a GI50 [10] of 2.92 µM and a TGI [10] of 10.9 µM.
In the case of `O=c1oc2ccc(Br)cc2c(=O)n1-c1ccc(Cl)cc1F`, the GI50 [1] is reported as 1.86 µM, the TGI [1] is reported as 21.3 µM and the GI50 [2] is reported as 1700 nM. It also gave a TGI [2] of over 26.2 µM, a GI50 [3] of 3.84 µM and a TGI [3] of over 100 µM. For the same compound, the GI50 [4] was 4.19 µM, the TGI [4] was 18.9 µM and the GI50 [5] was 0.69 µM. For the same compound, the TGI [5] was 4.5 µM, the GI50 [6] was 915 nM and the TGI [6] was 5.59 µM. For the same compound, the GI50 [7] was 1050 nM, the TGI [7] was 4.47 µM and the GI50 [8] was 1.7 µM. For the same compound, the TGI [8] was 9.52 µM, the GI50 [9] was 0.82 µM and the TGI [9] was 5.16 µM. For the same compound, the GI50 [10] was 0.672 µM and the TGI [10] was 4.48 µM.
Compound `O=C(c1ccccc1)c1nc2ccc(C(F)(F)F)cc2nc1N1CCN(c2ccccc2)CC1` has a GI50 [1] of 57.6 µM, a TGI [1] of over 100 µM and a GI50 [2] of 41800 nM. The TGI [2] was over 100 µM, the GI50 [3] was 70.5 µM and the TGI [3] was over 100 µM. The GI50 [4] was 30.7 µM, the TGI [4] was 74.7 µM and the GI50 [5] was 48 µM. For the same compound, the TGI [5] was over 100 µM, the GI50 [6] was 94900 nM and the TGI [6] was over 100 µM. The GI50 [7] was 35500 nM, the TGI [7] was over 100 µM and the GI50 [8] was 20.5 µM. It also gave a TGI [8] of 50.1 µM, a GI50 [9] of 36.2 µM and a TGI [9] of over 100 µM. The GI50 [10] was over 100 µM and the TGI [10] was over 100 µM.
`C/C=C(\C)C(=O)O[C@H]1C=CC(=O)O[C@H]1COC(=O)[C@H](C)O` showed a GI50 [1] of 9.17 µM, a TGI [1] of 22.4 µM and a GI50 [2] of 12200 nM. For the same compound, the TGI [2] was 28.3 µM, the GI50 [3] was 18.8 µM and the TGI [3] was 39 µM. The GI50 [4] was 10.8 µM, the TGI [4] was 24.3 µM and the GI50 [5] was 15.3 µM. For the same compound, the TGI [5] was 41.4 µM, the GI50 [6] was 14700 nM and the TGI [6] was 30.8 µM. The TGI [7] was 7.41 µM, the GI50 [8] was 3.74 µM and the TGI [8] was 16.2 µM. It also gave a GI50 [9] of 12.9 µM, a TGI [9] of 28.3 µM and a GI50 [10] of 17.6 µM. It also gave a TGI [10] of 46.4 µM.
`COc1cc(CCC(=O)NC[C@@H](O)c2ccccc2)ccc1O` was tested, and the GI50 [1] was over 100 µM, the TGI [1] was over 100 µM and the GI50 [2] was over 100000 nM. The TGI [2] was over 100 µM, the GI50 [3] was over 100 µM and the TGI [3] was over 100 µM. For the same compound, the GI50 [4] was over 100 µM, the TGI [4] was over 100 µM and the GI50 [5] was over 100 µM. The TGI [5] was over 100 µM, the GI50 [6] was over 100000 nM and the TGI [6] was over 100 µM. It also gave a GI50 [7] of over 100000 nM, a TGI [7] of over 100 µM and a GI50 [8] of over 100 µM. It also gave a TGI [8] of over 100 µM, a GI50 [9] of over 100 µM and a TGI [9] of over 100 µM. It also gave a GI50 [10] of over 100 µM and a TGI [10] of over 100 µM.
Compound `CCOC(=O)c1cc(NS(=O)(=O)c2ccc(C)cc2)cc(C(=O)OCC)c1` has a GI50 [1] of 34.9 µM, a TGI [1] of over 100 µM and a GI50 [3] of 37.9 µM. For the same compound, the TGI [3] was over 100 µM, the GI50 [4] was over 100 µM and the TGI [4] was over 100 µM. It also gave a GI50 [5] of 28.3 µM, a TGI [5] of over 100 µM and a GI50 [6] of 45500 nM. For the same compound, the TGI [6] was over 100 µM, the GI50 [7] was over 100000 nM and the TGI [7] was over 100 µM. It also gave a GI50 [8] of 39.6 µM, a TGI [8] of over 100 µM and a GI50 [9] of 78.1 µM. The TGI [9] was over 100 µM, the GI50 [10] was 70.7 µM and the TGI [10] was over 100 µM.
Work on `CC1(C)CCC(C)(C)c2cc(NC(=O)c3ccc(C(=O)O)cc3)ccc21` yielded a TGI [1] of over 100 µM, a TGI [2] of over 100 µM and a TGI [3] of over 95.2 µM. For the same compound, the TGI [4] was 85.3 µM, the TGI [5] was over 60.5 µM and the TGI [6] was over 100 µM. For the same compound, the TGI [7] was over 79.9 µM, the TGI [8] was over 64 µM and the TGI [9] was 93 µM. It also gave a TGI [10] of over 100 µM.
`Cc1cccc(Cl)c1NC(=O)c1cnc(Nc2cc(N3CCOCC3)cc(S(C)(=O)=O)c2)s1` was tested, and the GI50 [1] was 1.2 µM, the TGI [1] was 5.14 µM and the GI50 [2] was 516 nM. It also gave a TGI [2] of over 10 µM, a GI50 [3] of 0.257 µM and a TGI [3] of over 10 µM. It also gave a GI50 [4] of 0.132 µM, a TGI [4] of 1.15 µM and a GI50 [5] of over 10 µM. For the same compound, the TGI [5] was over 10 µM, the GI50 [6] was over 4820 nM and the TGI [6] was over 10 µM. It also gave a GI50 [7] of 103 nM, a TGI [7] of 0.994 µM and a GI50 [8] of 3 µM. The TGI [8] was over 10 µM, the GI50 [9] was 0.455 µM and the TGI [9] was over 10 µM. For the same compound, the GI50 [10] was 0.191 µM and the TGI [10] was over 8.3 µM.
`Oc1ccccc1/C=N\NC(=S)N/N=C/c1ccccc1O` was tested, and the GI50 [1] was 2.95 µM, the TGI [1] was 61 µM and the GI50 [2] was 2340 nM. For the same compound, the TGI [2] was 51.1 µM, the GI50 [3] was 9.38 µM and the TGI [3] was over 100 µM. The GI50 [4] was 4.62 µM, the TGI [4] was 53.3 µM and the GI50 [5] was 13.4 µM. It also gave a TGI [5] of 55.9 µM, a GI50 [6] of 2600 nM and a TGI [6] of 16.6 µM. It also gave a GI50 [7] of 5720 nM, a TGI [7] of over 100 µM and a GI50 [8] of 0.589 µM. The TGI [8] was over 100 µM, the GI50 [9] was 3.09 µM and the TGI [9] was 79.5 µM. The GI50 [10] was 4.28 µM and the TGI [10] was over 100 µM.
`CN(C)Cc1c(C(=O)NCCOc2ccc(C(=O)NO)cc2)oc2ccccc12` gave a GI50 [1] of 0.225 µM, a TGI [1] of over 33.6 µM and a GI50 [2] of 80.7 nM. For the same compound, the TGI [2] was 3.99 µM, the GI50 [3] was 0.115 µM and the TGI [3] was 1.3 µM. The GI50 [4] was 0.185 µM, the TGI [4] was 0.88 µM and the GI50 [5] was 0.243 µM. For the same compound, the TGI [5] was 1.54 µM, the GI50 [6] was 68.9 nM and the TGI [6] was 0.592 µM. The GI50 [7] was 197 nM, the TGI [7] was 0.643 µM and the GI50 [8] was 1.9 µM. It also gave a TGI [8] of over 35.9 µM, a GI50 [9] of 0.459 µM and a TGI [9] of over 100 µM. It also gave a GI50 [10] of 0.273 µM and a TGI [10] of 2.01 µM.
In the case of `O=[N+]([O-])c1oc2ccc3ccccc3c2c1CCO`, the TGI [1] is reported as over 36.5 µM, the TGI [2] is reported as 23.1 µM and the TGI [3] is reported as 34.9 µM. The TGI [4] was 27.7 µM, the TGI [5] was 3.94 µM and the TGI [6] was 4.2 µM. It also gave a TGI [7] of 3.71 µM, a TGI [8] of 34.2 µM and a TGI [9] of over 52 µM. The TGI [10] was 5.1 µM.
`O=C(O)Cc1ccc(N=Nc2c(O)c(C(=O)O)cc3ccccc23)cc1` gave a TGI [1] of over 100 µM, a TGI [2] of over 100 µM and a TGI [3] of over 100 µM. It also gave a TGI [4] of over 100 µM, a TGI [5] of over 100 µM and a TGI [6] of over 100 µM. The TGI [7] was over 100 µM, the TGI [8] was over 100 µM and the TGI [9] was over 100 µM. The TGI [10] was over 100 µM.
`COc1ccc(-c2cn(-c3cc(OC)c(OC)c(OC)c3)c(=O)[nH]2)cc1OC` showed a GI50 [1] of over 100 µM, a TGI [1] of over 100 µM and a GI50 [2] of over 100000 nM. The TGI [2] was over 100 µM, the GI50 [3] was over 100 µM and the TGI [3] was over 100 µM. The GI50 [4] was over 100 µM, the TGI [4] was over 100 µM and the GI50 [5] was over 100 µM. For the same compound, the TGI [5] was over 100 µM, the GI50 [6] was over 100000 nM and the TGI [6] was over 100 µM. The GI50 [7] was over 100000 nM, the TGI [7] was over 100 µM and the GI50 [8] was over 100 µM. For the same compound, the TGI [8] was over 100 µM, the GI50 [9] was over 100 µM and the TGI [9] was over 100 µM. For the same compound, the GI50 [10] was over 100 µM and the TGI [10] was over 100 µM.
In the case of `Cc1ccsc1-c1ccc2c(c1)COC2(CCCN(C)C)c1ccc(F)cc1` (configuration not stated), the GI50 [1] is reported as 3.17 µM, the TGI [1] is reported as 10.8 µM and the GI50 [2] is reported as 3280 nM. It also gave a TGI [2] of 13.2 µM, a GI50 [3] of 3.81 µM and a TGI [3] of 15 µM. The GI50 [4] was 3.04 µM, the TGI [4] was 12.8 µM and the GI50 [5] was 2.78 µM. For the same compound, the TGI [5] was 7.48 µM, the GI50 [6] was 1940 nM and the TGI [6] was 3.98 µM. It also gave a GI50 [7] of 2760 nM, a TGI [7] of 9.44 µM and a GI50 [8] of 3.09 µM. It also gave a TGI [8] of 10.9 µM, a GI50 [9] of 3.59 µM and a TGI [9] of 15.5 µM. It also gave a GI50 [10] of 8.16 µM and a TGI [10] of 21.9 µM.
